In patent publication US20030225065A1, “Bis-arylsulfones” (priority 2002, published 2003) one finds Ki and melting point data, which are given here for 11 molecules.

Structures can show the parent of a compound that is named as a salt.

T1 sequence (P50406 whole entry): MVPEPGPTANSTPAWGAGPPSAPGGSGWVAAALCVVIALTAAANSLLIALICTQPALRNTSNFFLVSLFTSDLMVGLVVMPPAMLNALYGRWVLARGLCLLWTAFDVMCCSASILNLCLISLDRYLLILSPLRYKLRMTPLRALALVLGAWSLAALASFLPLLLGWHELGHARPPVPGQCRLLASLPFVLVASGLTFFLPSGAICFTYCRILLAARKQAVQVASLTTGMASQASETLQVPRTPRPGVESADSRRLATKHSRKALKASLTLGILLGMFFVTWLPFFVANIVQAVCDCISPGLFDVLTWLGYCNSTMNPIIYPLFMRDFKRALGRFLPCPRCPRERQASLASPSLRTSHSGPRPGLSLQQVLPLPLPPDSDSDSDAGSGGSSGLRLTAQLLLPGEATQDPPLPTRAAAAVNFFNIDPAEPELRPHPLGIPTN

The first data set has as its target T1, cloned human 5-HT6 receptor (Homo sapiens, UniProt P50406).
T1 construct: host or cells: HeLa cells (G-418 selection), membrane preparation
Nature of the data set: 5-HT6 receptor binding assay ([3H]-LSD radioligand, SPA beads, Hela cell membranes). To be noted: IC50 converted to Ki by the Cheng-Prusoff equation. Here is the method:
Harvested intact cells are washed once in cold phosphate-buffered saline. The cells are pelleted and resuspended in 100 ml of cold 50 mM Tris, 5 mM EDTA and 5 mM EGTA, pH 7.4. Homogenization is with a Vir Tishear generator, 4 cycles for 30 seconds each at setting 50. The homogenized cells are centrifuged at 700 RPM (1000×g) for 10 minutes and the supernatant is removed. […] The rehomogenized cells are then centrifuged at 700 RPM (1000×g) for 10 minutes and the supernatant is removed. […] The membrane pellet is resupended in 50-8-ml of assay buffer containing HEPES 20 mM, MgCl2 10 mM, NaCl 150 mM, EDTA 1 mM, pH 7.4 and stored frozen in aliqouts at −70° C.
The radioligand binding assay used [^3H]-lysergic acid diethylamide (LSD). The assay is carried out in Wallac 96-well sample plates by the addition of 11 μl of the test sample at the appropriate dilution (the assay employed 11 serial concentrations of samples run in duplicate), 11 μl of radioligand, and 178 μl of a washed mixture of WGA-coated SPA beads and membranes in binding buffer. The plates are shaken for about 5 minutes and then incubated at room temperature for 1 hour. The plates are then loaded into counting cassettes and counted in a Wallac MicroBeta Trilux scintillation counter.
Eleven serial dilutions of test compounds are distributed to assay plates using the PE/Cetus Pro/Pette pipetter. […]
Consider `CCNc1cc(N2CCNCC2)ccc1S(=O)(=O)c1ccccc1` [Example 13, N-ethyl-2-(phenylsulfonyl)-5-(1-piperazinyl) phenylamine], for which affinity was put at a Ki of 2.7 nM.

Tested on in another data set: not given
Experiment: not given
Settings: not given
As to `CNc1cc(N2CCCNCC2)ccc1S(=O)(=O)c1cccc(F)c1` (as salt: HCl), the melting point – broadly, the temperature, or range, at which the solid turns liquid – lay within 153 to 154 °C. The same measure, in the same setting: under `Nc1cc(N2CCCNCC2)ccc1S(=O)(=O)c1cccc(F)c1` (as salt: hydrochloride) [Example 2, 5-(1,4-diazepan-1-yl)-2-[(3-fluorophenyl)sulfonyl]phenylamine] stands 106 to 108 °C. Regarding `Nc1cc(N2CCNCC2)ccc1S(=O)(=O)c1ccccc1` (as salt: salt) [Example 1, 2-(phenylsulfonyl)-5-(1-piperazinyl)phenylamine], the melting point lay in the range of 165 to 166 °C. `CCNc1cc(N2CCNCC2)ccc1S(=O)(=O)c1ccccc1` (as salt: salt) [Example 13, N-ethyl-2-(phenylsulfonyl)-5-(1-piperazinyl) phenylamine] yielded a melting point of 121 to 123 °C. `Nc1cc(N2CCNCC2)ccc1S(=O)(=O)c1ccc(F)cc1` [Example 3, 2-[(4-fluorophenyl)sulfonyl]-5-(1-piperazinyl) phenylamine] had a melting point of 144 to 146 °C.

`CN1CCN(c2ccc(S(=O)(=O)c3ccc(F)cc3)c(N)c2)CC1` [Example 4, 2-[(4-fluorophenyl)sulfonyl]-5-(4-methyl-1-piperazinyl) phenylamine] returned a melting point of 85 to 89 °C. In the case of `Cc1ccc(S(=O)(=O)c2ccc(N3CCNCC3)cc2N)cc1` [Example 5, 2-[(4-methylphenyl)sulfonyl]-5-(1-piperazinyl) phenylamine], the melting point is 102 to 106 °C. With `Cc1ccc(S(=O)(=O)c2ccc(N3CCN(C)CC3)cc2N)cc1` [Example 6, 2-[(4-methylphenyl)sulfonyl]-5-(4-methyl-1-piperazinyl) phenylamine], the melting point is 148 to 151 °C. Still for that read-out and setting: under `CN1CCN(c2ccc(S(=O)(=O)c3ccccc3)c(N)c2)CC1` [Example 7, 5-(4-methyl-1-piperazinyl)-2-(phenylsulfonyl) phenylamine] stands 90 to 93 °C; under `CN1CCN(c2ccc(S(=O)(=O)c3cccc(F)c3)c(N)c2)CC1` [Example 8, 2-[(3-fluorophenyl)sulfonyl]-5-(4-methyl-1-piperazinyl) phenylamine], 89 to 92 °C.
